# Source: patent publication US6362369B1, “Phthalic acid diamide derivatives fluorine-containing aniline compounds as starting material, agricultural and horticultural insecticides, and a method for application of the insecticides” (Nihon Nohyaku Co., Ltd., priority 1997, dated 2002)
# Tests used:
# Format in all cases: in vivo
# [1] = system: diamondback moth (Plutella xylostella); assay: Insecticidal effect on diamondback moth (Test Example 1); details: for Insecticidal effect on diamondback moth (Test Example 1), judged grade: mortality judged according to the criterion shown in Test Example 1; for Insecticidal effect, Test Example 1 / Insecticidal effect (Test Example 1), judged from mortality: diamondback moth; for Insecticidal effect (Test Example 1), judged from mortality: judged by the criterion of Test Example 1
# In short: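 Eggs laid by adult moths on Chinese cabbage seedlings, which were immersed in test solution, air-dried and kept at 25 °C. Hatched insects counted 6 days after immersion and mortality calculated, with effect graded by criterion; triplicate groups of 10 insects.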
# [2] = system: common cutworm (Spodoptera Litura); assay: Insecticidal effect on common cutworm (Test Example 2); details: 500 ppm, 25° C.; for Insecticidal effect on common cutworm (Test Example 2), judged grade / Insecticidal effect (Test Example 2), judged from mortality: cabbage leaf dip; for Insecticidal effect on common cutworm (Test Example 2), judged grade: second-instar larvae; for Insecticidal effect on common cutworm (Test Example 2), judged grade / Insecticidal effect, Test Example 2: eight days after inoculation; for Insecticidal effect, Test Example 2: cabbage leaf immersed; for Insecticidal effect (Test Example 2), judged from mortality: 8 days after inoculation
# In short: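 Mortality was scored 8 days post-inoculation, using three groups of 10 second-instar larvae kept at 25 °C in closed 9 cm dishes on air-dried treated material. The insecticidal effect was graded from calculated mortality by a set criterion.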
# [3] = system: rice leafroller (Cnaphalocrocis medinalis); assay: Insecticidal effect on rice leafroller (Test Example 3); details: 500 ppm, 25° C., humidity 70%; for Insecticidal effect on rice leafroller (Test Example 3), judged grade / Insecticidal effect (Test Example 3), judged from mortality: rice lamina dip; for Insecticidal effect on rice leafroller (Test Example 3), judged grade: third-instar larvae; for Insecticidal effect on rice leafroller (Test Example 3), judged grade / Insecticidal effect, Test Example 3: four days after inoculation; for Insecticidal effect, Test Example 3: rice lamina immersed; for Insecticidal effect (Test Example 3), judged from mortality: 4 days after inoculation
# In short: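 Groups of 10 third-instar larvae, in triplicate, are placed on air-dried lamina resting on wet filter paper. Incubation runs four days at 25° C with 70% humidity before survivors and dead are tallied.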
# [4] = judged by the mortality criterion of Test Example 1
# [5] = second-instar larvae of common cutworm
# [6] = third-instar larvae of rice leafroller
# [7] = mortality judged by criterion of Test Example 1
# [8] = common cutworm second-instar larvae
# [9] = rice leafroller third-instar larvae
compound,measurement,setting,value
Cc1cc(F)ccc1NC(=O)c1cccc([N+](=O)[O-])c1C(=O)NC(C)C [compound 675],"Insecticidal effect on diamondback moth (Test Example 1), judged grade",[1],A (100)
same,"Insecticidal effect on common cutworm (Test Example 2), judged grade",[2],A (100)
same,"Insecticidal effect on rice leafroller (Test Example 3), judged grade",[3],A (100)
CC(C)NC(=O)c1ccccc1C(=O)Nc1ccc(OC(F)(F)F)cc1Br [compound 48],"Insecticidal effect, Test Example 1",[1]; [4],A (100)
same,"Insecticidal effect, Test Example 2",[2]; [5],B (99-90)
same,"Insecticidal effect, Test Example 3",[3]; [6],A (100)
Cc1c(Cl)cccc1NC(=O)c1ccc(Cl)cc1C(=O)NC(C)C [compound 176],"Insecticidal effect, Test Example 1",[1]; [4],A (100)
same,"Insecticidal effect, Test Example 2",[2]; [5],D (79-50)
same,"Insecticidal effect, Test Example 3",[3]; [6],A (100)
Cc1cc(C(F)(F)C(F)(F)F)ccc1NC(=O)c1cccc(Cl)c1C(=O)NC(C)(C)C#Cc1ccc(OC(F)(F)F)cc1 [compound 1633],"Insecticidal effect (Test Example 1), judged from mortality",[1],A (100)
same,"Insecticidal effect (Test Example 2), judged from mortality",[2]; [5],A (100)
same,"Insecticidal effect (Test Example 3), judged from mortality",[3]; [6],A (100)
Cc1cc(OC(F)(F)C(F)C(F)(F)F)ccc1NC(=O)c1cccc([N+](=O)[O-])c1C(=O)NC(C)C (stereo not drawn) [compound 716],"Insecticidal effect on diamondback moth (Test Example 1), judged grade",[1],A (100)
same,"Insecticidal effect on common cutworm (Test Example 2), judged grade",[2],A (100)
same,"Insecticidal effect on rice leafroller (Test Example 3), judged grade",[3],A (100)
CCc1cc(C(F)(C(F)(F)F)C(F)(F)F)ccc1NC(=O)c1cccc(I)c1C(=O)NC(C)C [compound 1714],"Insecticidal effect (Test Example 1), judged from mortality",[1],A (100)
same,"Insecticidal effect (Test Example 2), judged from mortality",[2]; [5],A (100)
same,"Insecticidal effect (Test Example 3), judged from mortality",[3]; [6],A (100)
CC(C)NC(=O)c1c(Cl)cccc1C(=O)Nc1ccc2c(c1)OC(F)(F)C(F)(F)O2 [compound 977],"Insecticidal effect, Test Example 1",[1]; [7],A (100)
same,"Insecticidal effect, Test Example 2",[2]; [8],A (100)
same,"Insecticidal effect, Test Example 3",[3]; [9],A (100)
Cc1cc(Cl)ccc1NC(=O)c1ccccc1C(=O)NC(C)C [compound 50],"Insecticidal effect, Test Example 1",[1]; [4],A (100)
same,"Insecticidal effect, Test Example 2",[2]; [5],A (100)
same,"Insecticidal effect, Test Example 3",[3]; [6],A (100)
CCNC(=O)c1c(I)cccc1C(=O)Nc1ccc(C(F)(C(F)(F)F)C(F)(F)F)cc1C [compound 1073],"Insecticidal effect, Test Example 1",[1]; [7],A (100)
same,"Insecticidal effect, Test Example 2",[2]; [8],A (100)
same,"Insecticidal effect, Test Example 3",[3]; [9],A (100)
CC(C)NC(=O)c1ccccc1C(=O)Nc1ccc(OC(F)F)cc1C(F)(F)F [compound 83],"Insecticidal effect, Test Example 1",[1]; [4],A (100)
same,"Insecticidal effect, Test Example 2",[2]; [5],A (100)
same,"Insecticidal effect, Test Example 3",[3]; [6],A (100)
Cc1cc(OC(F)(F)C(F)(Cl)Cl)ccc1NC(=O)c1cccc(I)c1C(=O)NC(C)C [compound 381],"Insecticidal effect, Test Example 1",[1]; [4],A (100)
same,"Insecticidal effect, Test Example 2",[2]; [5],A (100)
same,"Insecticidal effect, Test Example 3",[3]; [6],A (100)
CC(C)NC(=O)c1c(I)cccc1C(=O)Nc1ccc2c(c1)OC(F)(F)C(F)(F)O2 [compound 1003],"Insecticidal effect, Test Example 1",[1]; [7],A (100)
same,"Insecticidal effect, Test Example 2",[2]; [8],A (100)
same,"Insecticidal effect, Test Example 3",[3]; [9],A (100)
C#CC(C)(C)NC(=O)c1c(I)cccc1C(=O)Nc1ccc(C(F)(F)C(F)(F)F)cc1C [compound 1629],"Insecticidal effect (Test Example 1), judged from mortality",[1],A (100)
same,"Insecticidal effect (Test Example 2), judged from mortality",[2]; [5],A (100)
same,"Insecticidal effect (Test Example 3), judged from mortality",[3]; [6],A (100)
CC(C)(C)NC(=O)c1c(F)cccc1C(=O)Nc1ccc(C(F)(F)C(F)(F)C(F)(F)F)cc1F [compound 1509],"Insecticidal effect (Test Example 1), judged from mortality",[1],A (100)
same,"Insecticidal effect (Test Example 2), judged from mortality",[2]; [5],C (89-80)
same,"Insecticidal effect (Test Example 3), judged from mortality",[3]; [6],A (100)
CCN(CC)C(=O)c1c(F)cccc1C(=O)Nc1ccc(C(F)(C(F)(F)F)C(F)(F)F)cc1C [compound 1526],"Insecticidal effect (Test Example 1), judged from mortality",[1],A (100)
same,"Insecticidal effect (Test Example 2), judged from mortality",[2]; [5],A (100)
same,"Insecticidal effect (Test Example 3), judged from mortality",[3]; [6],A (100)
CC(C)(C)NC(=O)c1cccc(Cl)c1C(=O)Nc1ccc(C(F)(F)F)cc1 [compound 935],"Insecticidal effect on diamondback moth (Test Example 1), judged grade",[1],A (100)
same,"Insecticidal effect on common cutworm (Test Example 2), judged grade",[2],A (100)
same,"Insecticidal effect on rice leafroller (Test Example 3), judged grade",[3],A (100)
Cc1cc(OC(F)F)ccc1NC(=O)c1cccc(Cl)c1C(=O)NC(C)(C)C [compound 1019],"Insecticidal effect, Test Example 1",[1]; [7],A (100)
same,"Insecticidal effect, Test Example 2",[2]; [8],A (100)
same,"Insecticidal effect, Test Example 3",[3]; [9],A (100)
CC(C)NC(=O)c1c(Cl)cccc1C(=O)Nc1ccc(C(F)(F)C(F)(F)C(F)(F)F)cc1F [compound 1494],"Insecticidal effect (Test Example 1), judged from mortality",[1],A (100)
same,"Insecticidal effect (Test Example 2), judged from mortality",[2]; [5],A (100)
same,"Insecticidal effect (Test Example 3), judged from mortality",[3]; [6],A (100)
COc1ccc(NC(=O)c2cccc(Br)c2C(=O)NC(C)C)c(C)c1 [compound 282],"Insecticidal effect, Test Example 1",[1]; [4],A (100)
same,"Insecticidal effect, Test Example 2",[2]; [5],A (100)
same,"Insecticidal effect, Test Example 3",[3]; [6],A (100)
CC(C)(C)NC(=O)c1c(Cl)cccc1C(=O)Nc1ccc(OC(F)(F)F)cc1 [compound 936],"Insecticidal effect on diamondback moth (Test Example 1), judged grade",[1],A (100)
same,"Insecticidal effect on common cutworm (Test Example 2), judged grade",[2],A (100)
same,"Insecticidal effect on rice leafroller (Test Example 3), judged grade",[3],A (100)
Cc1cc(OC(F)(F)C(F)F)ccc1NC(=O)c1ccc(I)cc1C(=O)NC(C)C [compound 1248],"Insecticidal effect, Test Example 1",[1]; [7],A (100)
same,"Insecticidal effect, Test Example 2",[2]; [8],A (100)
same,"Insecticidal effect, Test Example 3",[3]; [9],A (100)
Cc1cc(C(F)(F)F)ccc1NC(=O)c1cccc(I)c1C(=O)NC(C)C [compound 371],"Insecticidal effect, Test Example 1",[1]; [4],A (100)
same,"Insecticidal effect, Test Example 2",[2]; [5],A (100)
same,"Insecticidal effect, Test Example 3",[3]; [6],A (100)
CC(C)(C)NC(=O)c1c(I)cccc1C(=O)Nc1ccc(C(F)(F)C(F)(F)C(F)(F)F)cc1F [compound 1504],"Insecticidal effect (Test Example 1), judged from mortality",[1],A (100)
same,"Insecticidal effect (Test Example 2), judged from mortality",[2]; [5],A (100)
same,"Insecticidal effect (Test Example 3), judged from mortality",[3]; [6],A (100)
Cc1cc(C(F)(F)C(F)(F)C(F)(F)F)ccc1NC(=O)c1ccccc1C(=O)NC(C)C [compound 56],"Insecticidal effect, Test Example 1",[1]; [4],A (100)
same,"Insecticidal effect, Test Example 2",[2]; [5],A (100)
same,"Insecticidal effect, Test Example 3",[3]; [6],A (100)
CC(C)NC(=O)c1cc(Cl)ccc1C(=O)Nc1ccc(OC(F)(F)F)cc1 [compound 172],"Insecticidal effect, Test Example 1",[1]; [4],A (100)
same,"Insecticidal effect, Test Example 2",[2]; [5],A (100)
same,"Insecticidal effect, Test Example 3",[3]; [6],D (79-50)
Cc1cc(C(F)(F)C(F)(F)F)ccc1NC(=O)c1cccc(I)c1C(=O)NC(C)(C)CO [compound 1464],"Insecticidal effect (Test Example 1), judged from mortality",[1],A (100)
same,"Insecticidal effect (Test Example 2), judged from mortality",[2]; [5],A (100)
same,"Insecticidal effect (Test Example 3), judged from mortality",[3]; [6],A (100)
CCc1cc(Cl)ccc1NC(=O)c1cccc(Br)c1C(=O)NC(C)C [compound 271],"Insecticidal effect, Test Example 1",[1]; [4],A (100)
same,"Insecticidal effect, Test Example 2",[2]; [5],A (100)
same,"Insecticidal effect, Test Example 3",[3]; [6],A (100)
Cc1cc(C(F)(F)C(F)(F)F)ccc1NC(=O)c1cccc(I)c1C(=O)N(C(C)C)C(C)C [compound 1081],"Insecticidal effect, Test Example 1",[1]; [7],A (100)
same,"Insecticidal effect, Test Example 2",[2]; [8],A (100)
same,"Insecticidal effect, Test Example 3",[3]; [9],A (100)
Cc1cc(Oc2ccc(C(F)(F)F)cn2)ccc1NC(=O)c1c(Cl)cccc1C(=O)NC(C)C [compound 249],"Insecticidal effect, Test Example 1",[1]; [4],A (100)
same,"Insecticidal effect, Test Example 2",[2]; [5],D (79-50)
same,"Insecticidal effect, Test Example 3",[3]; [6],A (100)
CC(C)NC(=O)c1c(I)cccc1C(=O)Nc1ccc(C(F)(F)C(F)(F)C(F)(F)F)cc1 [compound 350],"Insecticidal effect, Test Example 1",[1]; [4],A (100)
same,"Insecticidal effect, Test Example 2",[2]; [5],A (100)
same,"Insecticidal effect, Test Example 3",[3]; [6],A (100)
CC(C)NC(=O)c1c(I)cccc1C(=O)Nc1ccc(S(=O)(=O)C(F)(F)F)cc1 [compound 1079],"Insecticidal effect, Test Example 1",[1]; [7],A (100)
same,"Insecticidal effect, Test Example 2",[2]; [8],A (100)
same,"Insecticidal effect, Test Example 3",[3]; [9],A (100)
